Assay results reported in patent US20140348865A1, “[…] ON AN HIV-1 V1V2 SITE-OF-VULNERABILITY” (The United States of America, as represented by the …, priority 2011, published 2014).

Columns and labels:
Fab PG9 = assay: Saturation transfer difference NMR of glycan binding to PG9; parameters: species or system human; conditions: for interaction with PG9 by STD NMR: 1.5 mM glycan, 15 μM Fab PG9
Text: FIGS. 6A-6B illustrate two glycans and a strand comprise a V1V2 site-of-vulnerability. Glycan, electrostatic, and sequence-independent interactions allow PG9 to recognize a glycopeptide site on V1V2. A, Site characteristics in CAP45 strain of HIV-1. Glycans 160 and 156 (173 with ZM109) are highlighted in light grey, and strands B and C are highlighted in dark grey, with the rest of V1V2 in semi-transparent white. The interactive surface of V1V2 with PG9 is shown, colored according the local electrostatic potential as in FIG. 5B. The contribution of each structural element to that surface is provided as a percentage of the total. […] C, Langmuir binding curve used to obtain the KD a function of glycan concentration (A signals correspond to N-acetyl protons, which are shown in the boxed area of the upper panel). D, Stacked STD NMR spectra as a function of Man5GlcNAc2-Asn concentration.
FIG. 25 illustrates binding of GlcNAc2 to PG9 by NMR. STD (lower trace) and reference (upper trace) NMR spectra of 1.5 mM GlcNAc2 in the presence of 15 μM Fab PG9.
FIG. 26 illustrates binding of mannopentaose to PG9 by NMR. STD (lower trace) and reference (upper trace) NMR spectra of 1.5 mM mannopentaose (structure shown above) in the presence of 15 μM Fab PG9.
All NMR experiments were carried out at 298 K on Bruker avance 600 or avance 500 instruments equipped with a triple resonance cryo-probe incorporating gradients in z-axis. 1D STD spectra were acquired by selectively irradiating at −1 ppm and +40 ppm as on- and off-resonance frequencies, respectively, using a train of 50 ms Gaussian-shaped radio frequency pulses separated by 1 ms delays and an optimized power level of 57 db. During NMR experiments water suppression was achieved by binomial 3-9-19 pulse sequence and protein resonances were suppressed by applying 10 ms T1ρ filter. Samples were prepared in 20 mM sodium phosphate buffer containing 50 mM sodium chloride at pH 6.8. The NMR data were processed and analyzed by using TOPSPIN 2.1. […]

PG9 = assay: ELISA of recombinant gp120 monomers with PG9; format: binding, human; conditions: gp120 monomer of the named strain

Compound | PG9 recognition in the gp120 monomer context (PG9) | also measured
CC(=O)N[C@H]1[C@H](O[C@H]2[C@H](O)[C@@H](NC(C)=O)C(O)O[C@@H]2CO)O[C@H](CO)[C@@H](O[C@@H]2O[C@H](CO[C@H]3O[C@H](CO[C@H]4O[C@H](CO)[C@@H](O)[C@H](O)[C@@H]4O)[C@@H](O)[C@H](O[C@H]4O[C@H](CO)[C@@H](O)[C@H](O)[C@@H]4O)[C@@H]3O)[C@@H](O)[C@H](O[C@H]3O[C@H](CO)[C@@H](O)[C@H](O)[C@@H]3O)[C@@H]2O)[C@@H]1O (some centres unmarked) [oligomannose-5] |  | interaction with PG9 by STD NMR (Fab PG9): weak interactions
ZM109: gp120 monomer of HIV-1 Clade C strain ZM109, SEQ ID NO: 2 | retained PG9 recognition | 
CAP45: gp120 monomer of HIV-1 Clade C strain CAP45, SEQ ID NO: 3 | retained PG9 recognition | 
TRJO: gp120 monomer of HIV-1 Clade B strain TRJO, SEQ ID NO: 7 | retained PG9 recognition | 
ZM53: gp120 monomer of HIV-1 Clade C strain ZM53, SEQ ID NO: 4 | retained PG9 recognition | 
CC(=O)N[C@@H]1[C@@H](O)[C@H](O[C@@H]2O[C@H](CO)[C@@H](O[C@@H]3O[C@H](CO[C@H]4O[C@H](CO[C@H]5O[C@H](CO)[C@@H](O)[C@H](O)[C@@H]5O)[C@@H](O)[C@H](O[C@H]5O[C@H](CO)[C@@H](O)[C@H](O)[C@@H]5O)[C@@H]4O)[C@@H](O)[C@H](O[C@H]4O[C@H](CO)[C@@H](O)[C@H](O)[C@@H]4O)[C@@H]3O)[C@H](O)[C@H]2NC(C)=O)[C@@H](CO)O[C@H]1NC(=O)C[C@H](N)C(=O)O [Asn-(N-actylglucosamine)2(mannose)5] |  | Kd (Fab PG9; titration series, Langmuir binding curve, read-out: affinity for PG9): 1.6 ± 0.9 mM
16055: gp120 monomer of HIV-1 Clade C strain 16055, SEQ ID NO: 6 [compound 16055] | retained PG9 recognition | 
CC(=O)N[C@H]1[C@H](O[C@H]2[C@H](O)[C@@H](NC(C)=O)C(O)O[C@@H]2CO)O[C@H](CO)[C@@H](O)[C@@H]1O (some centres unmarked) [(N-acetylglucosamine)2] |  | interaction with PG9 by STD NMR (Fab PG9): not observed
